Non-standard residues stand in square brackets, D forms with d. Residues, ends and D or L forms follow the SMILES beside them. *: point of attachment. X1 = CC(=O)N[C@@H]1[C@@H](O[C@@H]2O[C@H](CO)[C@H](O)[C@H](O)[C@H]2O)[C@@H](O)[C@@H](CO)O[C@@H]1*; pGlu = O=C1CC[C@@H](C(=O)O)N1
Experiments:
[1] = mouse, in vivo
[2] = mouse, in vivo; remark: listed apart in the source

Structure (SMILES) | TD50, rotorod test of minimal motor impairment [1] [pmol] | antinociceptive doses relative to doses for locomotor impairment or hypothermia [1] | doses causing long-lasting motor impairment, as multiple of ED50 [1] [fold] | time after which motor impairment resolved [1] [h] | time of maximal locomotor impairment post i.t. injection [1] [min] | duration of motor impairment [1] [h] | motor impairment on rotorod compared to vehicle [2]
CC[C@H](C)[C@H](NC(=O)[C@H](Cc1ccc(O)cc1)NC(=O)[C@@H]1CCCN1C(=O)[C@H](CCCCN)NC(=O)[C@H](CCCCN)NC(=O)[C@@H](NC(=O)[C@H](C)NC(=O)[C@H](CC(N)=O)NC(=O)[C@H](CO)NC(=O)CNC(=O)CNC(=O)[C@H](CCC(=O)O)NC(=O)[C@H](CCC(=O)O)NC(=O)[C@H](CO)NC(=O)[C@@H]1CCC(=O)N1)[C@@H](C)O[C@H]1O[C@H](CO)[C@H](O)[C@H](O[C@@H]2O[C@H](CO)[C@H](O)[C@H](O)[C@H]2O)[C@H]1NC(C)=O)C(=O)N[C@@H](CC(C)C)C(=O)O [contulakin-G] ([pGlu]SEEGGSNAT(X1)KKPYIL-OH) | 10 to 20 | 10-100 fold | ≥ 100 | 5 | 15 | – | –
CC[C@H](C)[C@H](NC(=O)[C@H](Cc1ccc(O)cc1)NC(=O)[C@@H]1CCCN1C(=O)[C@H](CCCCN)NC(=O)[C@H](CCCCN)NC(=O)[C@@H](NC(=O)[C@H](C)NC(=O)[C@H](CC(N)=O)NC(=O)[C@H](CO)NC(=O)CNC(=O)CNC(=O)[C@H](CCC(=O)O)NC(=O)[C@H](CCC(=O)O)NC(=O)[C@H](CO)NC(=O)[C@@H]1CCC(=O)N1)[C@@H](C)O)C(=O)N[C@@H](CC(C)C)C(=O)O [Thr10-contulakin-G] (HELM PEPTIDE1{[Glp].S.E.E.G.G.S.N.A.T.K.K.P.Y.I.L}$$$$V2.0) | – | approximately equal doses | ≥ 10 | – | 15 | 2 to 3 | no motor impairment
